Paper PMC10901194, “Boronic acid inhibitors of penicillin-binding protein 1b: serine and lysine labelling agents” (Journal of Enzyme Inhibition and Medicinal Chemistry, 2024)
≈ marks a conversion by molar mass, not a printed value. Where “and” joins values, the source holds several entries; their conditions need not be identical. Identical values can stand only once. Like-named read-outs stand apart in the source and are kept apart here.

Assays:
[1] = target: T1, PBP1b (Streptococcus pneumoniae, UniProt Q7CRA4); experiment: PBP1b inhibition, hydrolysis of thioester substrate analogue (residual activity, IC50); type: biochemical
Method: The inhibitory activity of 26 compounds was tested in the assay[31] employing a thioester substrate analogue at a concentration of 500 and 50 µM (Table S1).
Residual activities were determined by the ability of a potential inhibitor to hinder the hydrolysis of substrate analogue thioester (2-((benzoyl-D-alanyl)thio)acetic acid) as already described. PBP1b, prepared according to literature[31] (0.8 µM), was incubated with potential inhibitor (final concentration 500 µM) in 10 mM sodium phosphate buffer (pH = 7.0) in the presence of 100 mM D-alanine, 0.01 mg/mL BSA, and 0.01% Triton-X-100 for 60 min at 25 °C. After preincubation, the 5,5′-dithiobis-(2-nitrobenzoic acid) (DTNB) and thioester were added to each well to initiate the reaction and to obtain a final concentration of 1 mM and 5 mM, respectively. The final volume of the reaction was 150 µL. The initial rate of thioester hydrolysis was determined by measuring the absorbance at 412 nm for 30 min using a microtiter 96-well plate and Biotek Synergy H4 Hybrid microplate reader. The same assay was performed in the absence of an inhibitor. […] All experiments were run in triplicate. The ratio of the rate of reaction with inhibitor to the rate of reaction without compound expressed as a percentage gives the (RA [%] = ((vi – b)/(vo – b)) * 100, where b is the blank value for the initial rate of spontaneous hydrolysis of the thioester in the presence of the potential inhibitor and in the absence of PBP1b). The IC50 values were determined by measuring the reaction rates at seven different inhibitor concentrations.

[2] = test system: E. coli (ATCC 25922); experiment: Antimicrobial testing, broth microdilution (MIC); type: cell-based; details: Escherichia coli, ATCC25922; E. coli ATCC 25922, 20 h at 35 °C
Method: (§1) Antimicrobial testing was carried out by the broth microdilution method in 96-well plate format following the CLSI guidelines and European Committee for Antimicrobial Susceptibility Testing recommendations. Bacterial suspension of specific bacterial strain equivalent to 0.5 McFarland turbidity standard was diluted with cation-adjusted Mueller Hinton broth to obtain a final inoculum of 10^5 CFU/mL. Compounds dissolved in DMSO and inoculum were mixed together and incubated for 20 h at 35 °C. After incubation the minimal inhibitory concentration (MIC) values were determined by visual inspection as the lowest dilution of compounds showing no turbidity. The MICs were determined against S. aureus (ATCC 29213) and E. coli (ATCC 25922) bacterial strains. Tetracycline was used as a positive control on every assay plate.

[3] = test system: S. aureus (ATCC 29213); experiment: Antimicrobial testing, broth microdilution (MIC); type: cell-based; details: Staphylococcus aureus, ATCC29213; S. aureus ATCC 29213, 20 h at 35 °C
Method: as §1

[4] = target: T1, PBP1b; experiment: LC-MS/MS covalent labelling of PBP1b; type: binding; details: 450-fold excess of compound, 45 °C, 2 h
Method: Further experimental study of 2-formylbenzeneboronic acid 29 and 30 was performed to characterise their binding.
The measurements were preformed analogously to those reported in Kollár et al. and Petri et al.[68]^,[69] The protein stock solution (20.0 µL and 37.0 µM) was diluted with buffer solution (20.0 µL; pH 7.0; 20 mM Hepes, 100 mM NaCl, 1 mM EDTA, and 10% glycerol), then the stock solution of the inhibitor (0.66 µL, 500 mM in DMSO) was added. The sample was incubated at 45 °C for 120 min and then subjected to LC-MS/MS measurements. The molecular weights of the conjugates of PBP1b were identified using a Triple TOF 5600+ hybrid Quadrupole-TOF LC/MS/MS system (Sciex, Singapore, Woodlands) equipped with a DuoSpray IonSource coupled with a Shimadzu Prominence LC20 UFLC (Shimadzu, Kyoto, Japan) system consisting of binary pump, an autosampler and a thermostated column compartment.
Data acquisition and processing were performed using Analyst TF software version 1.7.1 (AB Sciex Instruments, Redwood City, CA). Chromatographic separation was achieved on a Merck BIOshell^TM 400 Å Protein C18 (75 mm × 2.1mm, 3.4 µm, 400 Å) HPLC column. Sample was eluted in gradient elution mode using solvent A (0.1% formic acid in water) and solvent B (0.1% formic acid in ACN). […]

[5] = 1 h, pH 7, Table S1, 50 µM, 60 min preincubation; read-out: RA%@50µM PBP1b S.pneumoniae, 60 min preincubation
[6] = 1 h, pH 7, Table S1, 500 µM, 60 min preincubation; read-out: RA%@500µM PBP1b S.pneumoniae, 60 min preincubation
[7] = PBP1b 0.8 µM, 60 min preincubation at 25 °C, thioester substrate; read-out: IC50
[8] = 1 h, pH 7, residual activity at 500 µM inhibitor, 60 min preincubation; read-out: RA [%] @500 µM

| Structure (SMILES) | IC50 [1, 7] | MIC [2] | MIC [3] | activity at 500 µM [1, 8] | other results |
| --- | --- | --- | --- | --- | --- |
| C[C@H]1[C@H](NC(=O)/C(=N\OC(C)(C)C(=O)O)c2csc(N)n2)C(=O)N1S(=O)(=O)O [Aztreonam, reference compound] |  |  |  |  | activity at 500 µM ([1]; 1 h, pH 7, read-out: RA [%] @500 µM): 1.4 ± 0.1%; IC50 ([1]; IC50, PBP1b 0.8 µM, 60 min preincubation at 25 °C, thioester substrate): < 0.8 µM |
| CC(NC(=O)c1ccc(B(O)O)cc1)C1CCC(F)(F)CC1 (stereo not shown) [Compound 1] | 127 ± 14.4 µM | > 250 µM | > 250 µM |  | activity at 50 µM [1, 5]: 78.8 ± 2.7%; activity at 500 µM [1, 6]: < 50% |
| O=C(c1ccn(-c2cccc([N+](=O)[O-])c2)n1)N1CCC(B(O)O)C1 (stereo not shown) [Compound 2] | 206 ± 21.7 µM | > 250 µM | 125 µM (≈ 41.3 µg/mL) |  | activity at 50 µM [1, 5]: 83.5 ± 0.1%; activity at 500 µM [1, 6]: < 50% |
| CCC(=O)Nc1cccc(C(=O)N2CCC(B(O)O)C2)c1 (stereo not shown) [Compound 5] |  |  |  | 85.7 ± 9.5% |  |
| Cn1cc(C(=O)NCB(O)O)nn1 [Compound 8] | ~213 µM and 213 µM | > 250 µM | > 250 µM |  |  |
| CC1(C)OB(C(CC(=O)Nc2ccccc2)NC(=O)c2ccccc2F)OC1(C)C (stereo not shown) [Compound 17] |  |  |  | 48.1 ± 2% |  |
| O=Cc1ccccc1B(O)O [Compound 29] | 119 ± 6 µM | > 250 µM | > 250 µM |  | PBP1b inhibition (in words) [1]: inhibitors of PBP1b; time-dependent inhibition [1]: No time-dependent inhibition; labelling of PBP1b in MS/MS experiments [4]: single labelling of PBP1b was observed |
| CC(=O)c1ccccc1B(O)O [Compound 31] |  |  |  |  | PBP1b inhibition (in words) [1]: inactive; activity at 500 µM ([1]; 1 h, pH 7; read-out: RA [%] @500 µM): 96.7% |
| CC1(C)OB(c2ccccc2CNc2ccccc2C=O)OC1(C)C [Compound 32] |  |  |  | 96.6 ± 0.6% | PBP1b inhibition (in words) [1]: does not inhibit PBP1b at 1 mM concentration |
| O=Cc1ccccc1NCc1ccccc1B(O)O [Compound 33] |  |  |  | 56.9 ± 0.8% | PBP1b inhibition (in words) [1]: slight activity in the millimolar concentration range |

Second part, led by results:

| IC50 [1, 7] | MIC [2] | MIC [3] | activity at 500 µM [1, 8] | Structure (SMILES) | other results |
| --- | --- | --- | --- | --- | --- |
|  |  |  | 86.3 ± 8.4% | Cc1cc(C(=O)N2CCC(B(O)O)C2)ccn1 (stereo not shown) [Compound 3] |  |
|  |  |  | 60.9 ± 7.6% | O=C(C1Cc2cccc(F)c2O1)N1CCC(B(O)O)C1 (stereo not shown) [Compound 4] |  |
|  |  |  | 81.1 ± 1.6% | Cn1cc(C(=O)N2CCC(B(O)O)C2)nn1 (stereo not shown) [Compound 6] |  |
| 28.2 ± 7.4 µM | > 250 µM | > 250 µM |  | O=C(NCB(O)O)c1ccccc1F [Compound 9, reference compound] | free energy gain in complex formation (ΔGdc) ([1]; from IC50 accepted as approximation to Ki): -25.9 kJ/mol |
|  |  |  | 66.3 ± 7% | CC1(C)OB(C(CC(=O)N(Cc2ccccc2)Cc2ccccc2)NC(=O)c2ccccc2F)OC1(C)C (stereo not shown) [Compound 18] |  |
|  | > 250 µM | 62.5 µM (≈ 27.1 µg/mL) | 68.9 ± 8.2% | O=C(NC(CC(=O)N(Cc1ccccc1)Cc1ccccc1)B(O)O)c1ccccc1F (stereo not shown) [Compound 19] |  |
| 200 ± 15.3 µM | > 250 µM | > 250 µM |  | O=Cc1cc(C(F)(F)F)ccc1B(O)O [Compound 30] | PBP1b inhibition (in words) [1]: inhibitors of PBP1b; time-dependent inhibition [1]: No time-dependent inhibition; labelling of PBP1b in MS/MS experiments [4]: single labelling of PBP1b was observed |
